In patent publication US10278909B2, “Composition suitable to preserve the physiological condition of skin and hair and reestablish their regenerative functions” (GIULIANI S.P.A., priority 2014, dated 2019):

Tested on: Human Hair Follicle Outer Root Sheath Cells (HHFORSC)
Experiment: ATP assay in Human Hair Follicle Outer Root Sheath Cells (Abcam ATP-assay kit, absorbance 570 nm)
Assay type: cell-based
Conditions: 24 h treatment, carnitine 10 mg/ml, caffeine 10 mg/ml, arginine 30 mg/ml (alone or combined); for ATP % vs control: control = culture medium only = 100
Description: Human Hair Follicle Outer Root Sheath Cells (HHFORSC), supplied by Innoprot, are isolated by ScienCell Research Labs from the outer sheath of the root of human hair. The cell line was grown in culture medium for mesenchymal stem cells (MSCM): 500 mL basal medium, 20% fetal bovine serum (FBS), 1% growth supplement for mesenchymal stem cells (MSCGS), 1% penicillin/streptomycin (P/S solution) and maintained in 25 cm^2 culture flasks at 37° C. and 5% CO2. Before proceeding with plating the cells, the flask cells is coated with poly-L-lysine (2 μg/cm^2). Every two days, the confluent cultures are divided 1:3-1:6, after washing with DPBS (Dulbecco's Phosphate-Buffered Saline), using a solution of T/E (trypsin/EDTA solution) and TNS (Trypsin Neutralization Solution) and seeded at 2-5×^4 cell/cm^2, 37° C., 5% CO2. When the cells (HHFORSC) reach about 80% confluence, they are detached with trypsin/EDTA and seeded at a density of 1×10^6 cells/ml in 12-well plates and then incubated at 37° C., 5% CO2 (24 h). When the cells reach about 80% confluence, they are treated with samples of the following compounds or mixtures of compounds, tested at the concentrations described hereafter: • Carnitine 10 mg/ml • Caffeine 10 mg/ml • Arginine 30 mg/ml • Carnitine 10 mg/ml+Caffeine 10 mg/ml • Carnitine 10 mg/ml+Arginine 30 mg/ml • Caffeine 10 mg/ml+Arginine 30 mg/ml • Carnitine 10 mg/ml+Caffeine 10 mg/ml+Arginine 30 mg/ml The cells treated with culture medium only were used as control. All the cells were incubated at 37° C., 5% CO2 for 24 h. […] The samples were then lysed by pipetting repeatedly and centrifuged to remove insoluble materials, and finally stored on ice until use. […] The samples were incubated at room temperature for 30 minutes, in the dark. The absorbance was read at a wavelength of 570 nm with a reference filter of 630 nm in a microplate reader Biotek ELX808 using a predetermined protocol and after having correctly defined a layout of the plate. The ATP concentration was calculated by interpolating the data of the standard curve after subtraction of the blank: [ATP] (nmol/μl)=Ts/Sv where Ts is the amount of ATP from the standard curve (nmol); SV is the volume of the sample (before dilution) added to the sample wells (μl).

C[N+](C)(C)CC(O)CC(=O)[O-] (stereo not drawn) [Carnitine]
Δ % (increase in the production of cellular ATP vs untreated control): 34.164%
ATP % vs control: 134.16%

Cn1c(=O)c2c(ncn2C)n(C)c1=O [Caffeine]
Δ % (increase in the production of cellular ATP vs untreated control): 26.843%
ATP % vs control: 126.84%

N=C(N)NCCC[C@H](N)C(=O)O [Arginine]
Δ % (increase in the production of cellular ATP vs untreated control): 32.944%
ATP % vs control: 132.94%
